In patent US20130302282A1, “Inhibitors of Hepatitis C Virus” (priority 2010, published 2013):
Where two headings read alike, the source gives them in different places.

Tested on: 1b_Huh-Luc/Neo-ET cell line (bicistronic genotype 1b replicon in Huh 7 cells)
Assay: HCV 1b replicon assay, luciferase readout
Format: cell-based, HCV genotype 1b
Details: Hepatitis C virus
Description: Biological activity of the compounds of the invention was determined using an HCV replicon assay. The 1b_Huh-Luc/Neo-ET cell line persistently expressing a bicistronic genotype 1b replicon in Huh 7 cells was obtained from ReBLikon GMBH. This cell line was used to test compound inhibition using luciferase enzyme activity readout as a measurement of compound inhibition of replicon levels.
On Day 1 (the day after plating), each compound is added in triplicate to the cells. Plates incubated for 72 […] prior to running the luciferase assay. Enzyme activity was measured using a Bright-Glo Kit (cat. number E2620) manufactured by Promega Corporation. The following equation was used to generate a percent control value for each compound.
%Control=(Average Compound Value/Average Control)*100
The EC50 value was determined using GraphPad Prism and the following equation:
Y=Bottom+(Top−Bottom)/(1+10̂((LogIC50−X)*HillSlope))
EC50 values of compounds are repeated several times in the replicon assay.

[1] = Huh-7, 1b_Huh-Luc/Neo-ET cell line, read-out: EC50, half-maximal inhibition of HCV 1b replication
[2] = Huh-7, class symbol, HCV genotype 1b replicon, read-out: Inhibition of HCV genotype 1b replicon

Compound | EC50 [1] | EC50 [2]
C=CCN1C(=O)CN(S(C)(=O)=O)c2cc3oc(-c4ccc(F)cc4)c(C(=O)NC)c3cc2C1C (centres unmarked) [Compound B55] | 0.01 to 0.1 µM | 0.01 to 0.1 µM
CNC(=O)c1c(-c2ccc(Oc3ccc(F)cc3)cc2)oc2cc3c(cc12)C(C)n1nncc1CN3S(C)(=O)=O (centres unmarked) [Compound B158] | ≤ 0.01 µM | < 0.01 µM
CNC(=O)c1c(-c2ccc(F)cc2)oc2cc3c(cc12)C(C)OC(CN=[N+]=[N-])CN3S(C)(=O)=O (centres unmarked) [Compound B218] | ≤ 0.01 µM | < 0.01 µM
CNC(=O)c1c(-c2ccc(F)cc2)oc2cc3c(cc12)C(C)OC(CC#N)CN3S(C)(=O)=O (centres unmarked) [Compound B226] | ≤ 0.01 µM | < 0.01 µM
CNC(=O)c1c(-c2ccc(Oc3ccc(F)cc3)cc2)oc2cc3c(cc12)[C@H](C)O[C@H](COP(=O)(O)O)CN3S(C)(=O)=O [Compound B240] | ≤ 0.01 µM | < 0.01 µM
CNC(=O)c1c(-c2ccc(F)cc2)nn2cc3c(cc12)[C@H](C)CCCN3S(C)(=O)=O (single isomer, unassigned) [Compound B52] | – | 0.1 to 1 µM
CNC(=O)c1c(-c2ccc(F)cc2)oc2cc3c(cc12)C(C)n1nncc1CN3S(C)(=O)=O (centres unmarked) [Compound B138] | ≤ 0.01 µM | < 0.01 µM
CNC(=O)c1c(-c2ccc(Oc3ccc(F)cc3)cc2)oc2cc3c(cc12)C(C)OC(CCO)CN3S(C)(=O)=O (centres unmarked) [Compound B235] | 0.01 to 0.1 µM | 0.01 to 0.1 µM
CNC(=O)c1c(-c2ccc(F)cc2)oc2cc3c(cc12)CCCCN3C(=O)OC [Compound B87] | – | 0.1 to 1 µM
CNC(=O)c1c(-c2ccc(F)cc2)nn2cc3c(cc12)C(C)OC(CO)CN3S(C)(=O)=O (centres unmarked) [Compound B242] | – | 0.1 to 1 µM
CNC(=O)c1c(-c2ccc(F)cc2)oc2cc3c(cc12)C(C)OC(CN1CCOCC1)CN3S(C)(=O)=O (centres unmarked) [Compound B205] | 0.01 to 0.1 µM | 0.01 to 0.1 µM
CNC(=O)c1c(-c2ccc(F)cc2)oc2cc3c(cc12)C(C)N(Cc1ccc(F)cc1)CCN3S(C)(=O)=O (centres unmarked) [Compound B142] | 0.01 to 0.1 µM | 0.01 to 0.1 µM
CNC(=O)c1c(-c2ccc(F)cc2)oc2cc3c(cc12)C(C)OCC(CS(C)(=O)=O)N3S(C)(=O)=O (centres unmarked) [Compound B225] | 0.01 to 0.1 µM | 0.01 to 0.1 µM
CNC(=O)c1c(-c2ccc(F)cc2)oc2cc3c(cc12)C(C)N(S(C)(=O)=O)CCN3S(C)(=O)=O (centres unmarked) [Compound B157] | 0.01 to 0.1 µM | 0.01 to 0.1 µM
CNC(=O)c1c(-c2ccc(Oc3ccc(F)cc3)cc2)oc2cc3c(cc12)[C@H](C)N(C)C(=O)CN3S(C)(=O)=O (single isomer, unassigned) [Compound B181] | 0.01 to 0.1 µM | 0.01 to 0.1 µM
CNC(=O)c1c(-c2ccc(F)cc2)oc2cc3c(cc12)C(C)N(C)C(=O)CN3S(C)(=O)=O (centres unmarked) [Compound B172] | 0.01 to 0.1 µM | 0.01 to 0.1 µM
CS(=O)(=O)N1CCCCCc2cc3c(-c4ncc[nH]4)c(-c4ccc(F)cc4)oc3cc21 [Compound B130] | ≤ 0.01 µM | < 0.01 µM
CNC(=O)c1c(-c2ccc(F)cc2)oc2cc3c(cc12)C(C)OC(CNC(=O)OC)CN3S(C)(=O)=O (centres unmarked) [Compound B221] | ≤ 0.01 µM | < 0.01 µM
[2H]C([2H])([2H])NC(=O)c1c(-c2ccc(F)cc2)nn2cc3c(cc12)CCCCCN3S(C)(=O)=O [Compound B126] | – | 0.01 to 0.1 µM
CNC(=O)c1c(-c2ccc(F)cc2)oc2cc3c(cc12)[C@H](C)c1ccccc1CN3S(C)(=O)=O (single isomer, unassigned) [Compound B203] | 0.01 to 0.1 µM | 0.01 to 0.1 µM
CNC(=O)c1c(-c2ccc(F)cc2)oc2cc3c(cc12)[C@@H](C)O[C@H](CO)CN3S(C)(=O)=O [Compound B217] | 0.01 to 0.1 µM | 0.01 to 0.1 µM
